Test results as given in publication PMC6199744, “Development of Chemical Proteomics for the Folateome and Analysis of the Kinetoplastid Folateome” (ACS Infectious Diseases, 2018).
Like-named read-outs stand apart in the source and are kept apart here.

What was measured:
Assay type in all cases: binding
[1] = target: T1, HeLa cell extract proteins (Homo sapiens, UniProt Q9Y679)
T1 construct: endogenous in cells; host or cells: HeLa cell extract
T1 sequence (Q9Y679 1-410): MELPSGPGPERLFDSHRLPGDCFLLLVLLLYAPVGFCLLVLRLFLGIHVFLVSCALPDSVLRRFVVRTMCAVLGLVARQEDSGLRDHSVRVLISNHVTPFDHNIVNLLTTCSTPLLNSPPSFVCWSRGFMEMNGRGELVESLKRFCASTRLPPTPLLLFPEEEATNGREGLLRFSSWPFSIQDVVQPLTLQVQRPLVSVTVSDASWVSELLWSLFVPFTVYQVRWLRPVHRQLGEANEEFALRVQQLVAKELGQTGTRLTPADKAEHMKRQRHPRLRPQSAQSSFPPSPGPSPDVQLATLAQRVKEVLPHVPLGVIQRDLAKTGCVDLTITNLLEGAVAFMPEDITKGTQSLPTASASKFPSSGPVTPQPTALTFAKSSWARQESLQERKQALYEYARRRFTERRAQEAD

[2] = target: T2, HeLa cell extract proteins (Homo sapiens, UniProt O00743)
T2 construct: endogenous in cells; host or cells: HeLa cell extract
T2 sequence (O00743 1-305): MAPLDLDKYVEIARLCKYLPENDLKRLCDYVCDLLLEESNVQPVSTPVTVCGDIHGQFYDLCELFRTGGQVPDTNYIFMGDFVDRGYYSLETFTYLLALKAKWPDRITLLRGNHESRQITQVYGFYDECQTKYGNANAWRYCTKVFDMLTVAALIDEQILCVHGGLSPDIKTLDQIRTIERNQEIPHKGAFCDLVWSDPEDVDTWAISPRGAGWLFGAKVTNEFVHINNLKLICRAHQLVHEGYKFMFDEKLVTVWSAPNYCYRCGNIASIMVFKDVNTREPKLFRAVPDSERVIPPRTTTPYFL

[3] = target: T3, HeLa cell extract proteins (Homo sapiens, UniProt Q9NVI1)
T3 construct: endogenous in cells; host or cells: HeLa cell extract
T3 sequence (Q9NVI1 1-1328): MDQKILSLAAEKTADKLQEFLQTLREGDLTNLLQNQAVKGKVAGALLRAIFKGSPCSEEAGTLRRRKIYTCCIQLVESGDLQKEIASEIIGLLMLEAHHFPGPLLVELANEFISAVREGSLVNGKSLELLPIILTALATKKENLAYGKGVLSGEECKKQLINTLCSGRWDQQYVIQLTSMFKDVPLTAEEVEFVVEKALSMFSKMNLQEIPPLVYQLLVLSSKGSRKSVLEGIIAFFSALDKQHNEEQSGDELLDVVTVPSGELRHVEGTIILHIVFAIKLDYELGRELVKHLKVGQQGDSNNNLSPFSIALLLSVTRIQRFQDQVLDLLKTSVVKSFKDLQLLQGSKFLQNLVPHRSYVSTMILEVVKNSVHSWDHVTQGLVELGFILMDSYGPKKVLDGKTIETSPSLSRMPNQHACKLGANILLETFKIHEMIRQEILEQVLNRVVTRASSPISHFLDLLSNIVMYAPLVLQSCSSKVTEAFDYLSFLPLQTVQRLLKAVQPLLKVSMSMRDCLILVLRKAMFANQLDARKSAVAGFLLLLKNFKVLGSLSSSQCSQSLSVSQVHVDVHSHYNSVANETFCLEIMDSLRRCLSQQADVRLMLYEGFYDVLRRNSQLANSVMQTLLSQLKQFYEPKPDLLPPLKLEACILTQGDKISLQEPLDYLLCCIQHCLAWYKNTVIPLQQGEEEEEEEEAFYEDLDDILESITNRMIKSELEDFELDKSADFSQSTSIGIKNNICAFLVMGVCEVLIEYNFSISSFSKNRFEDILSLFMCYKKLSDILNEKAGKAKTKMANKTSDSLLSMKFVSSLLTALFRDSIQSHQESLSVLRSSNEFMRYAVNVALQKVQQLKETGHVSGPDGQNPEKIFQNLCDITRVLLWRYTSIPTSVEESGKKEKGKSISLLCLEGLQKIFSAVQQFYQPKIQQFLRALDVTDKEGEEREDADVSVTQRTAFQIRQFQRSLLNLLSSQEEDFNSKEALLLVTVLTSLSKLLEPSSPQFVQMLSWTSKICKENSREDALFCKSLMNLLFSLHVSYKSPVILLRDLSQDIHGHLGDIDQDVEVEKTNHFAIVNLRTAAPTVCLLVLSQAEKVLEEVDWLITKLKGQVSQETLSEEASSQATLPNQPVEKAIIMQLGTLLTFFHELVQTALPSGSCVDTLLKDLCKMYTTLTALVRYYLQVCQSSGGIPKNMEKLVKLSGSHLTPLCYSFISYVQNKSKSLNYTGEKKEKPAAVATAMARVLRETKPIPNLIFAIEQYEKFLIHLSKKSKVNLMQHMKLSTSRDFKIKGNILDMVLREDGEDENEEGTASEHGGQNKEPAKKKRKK

[4] = target: T4, HeLa cell extract proteins (Homo sapiens, UniProt Q8NEW0)
T4 construct: endogenous in cells; host or cells: HeLa cell extract
T4 sequence (Q8NEW0 1-376): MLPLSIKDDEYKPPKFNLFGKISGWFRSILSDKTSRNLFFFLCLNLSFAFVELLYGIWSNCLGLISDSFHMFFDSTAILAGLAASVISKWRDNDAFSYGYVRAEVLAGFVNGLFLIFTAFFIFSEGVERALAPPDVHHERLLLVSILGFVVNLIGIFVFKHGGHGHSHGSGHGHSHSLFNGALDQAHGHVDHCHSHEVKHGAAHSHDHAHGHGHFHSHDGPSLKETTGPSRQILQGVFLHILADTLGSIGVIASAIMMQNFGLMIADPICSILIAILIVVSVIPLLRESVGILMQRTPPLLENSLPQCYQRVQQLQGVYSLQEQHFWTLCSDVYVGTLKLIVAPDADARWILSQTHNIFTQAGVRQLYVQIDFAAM

[5] = target: T5, HeLa cell extract proteins (Homo sapiens, UniProt Q96CN7)
T5 construct: endogenous in cells; host or cells: HeLa cell extract
T5 sequence (Q96CN7 1-298): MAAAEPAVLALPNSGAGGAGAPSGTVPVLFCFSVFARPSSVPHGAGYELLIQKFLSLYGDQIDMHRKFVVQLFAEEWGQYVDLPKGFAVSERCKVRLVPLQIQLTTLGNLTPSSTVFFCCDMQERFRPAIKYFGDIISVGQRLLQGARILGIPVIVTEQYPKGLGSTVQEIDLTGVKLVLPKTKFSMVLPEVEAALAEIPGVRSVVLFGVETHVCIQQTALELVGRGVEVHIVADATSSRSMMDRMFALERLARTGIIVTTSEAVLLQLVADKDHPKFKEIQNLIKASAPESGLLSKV

[6] = target: T6, HeLa cell extract proteins (Homo sapiens, UniProt Q15366)
T6 construct: endogenous in cells; host or cells: HeLa cell extract

[7] = HeLa, protein SLC30A7 (SOLUTE CARRIER FAMILY 30 MEMBER 7)

T6 sequence (Q15366 whole entry): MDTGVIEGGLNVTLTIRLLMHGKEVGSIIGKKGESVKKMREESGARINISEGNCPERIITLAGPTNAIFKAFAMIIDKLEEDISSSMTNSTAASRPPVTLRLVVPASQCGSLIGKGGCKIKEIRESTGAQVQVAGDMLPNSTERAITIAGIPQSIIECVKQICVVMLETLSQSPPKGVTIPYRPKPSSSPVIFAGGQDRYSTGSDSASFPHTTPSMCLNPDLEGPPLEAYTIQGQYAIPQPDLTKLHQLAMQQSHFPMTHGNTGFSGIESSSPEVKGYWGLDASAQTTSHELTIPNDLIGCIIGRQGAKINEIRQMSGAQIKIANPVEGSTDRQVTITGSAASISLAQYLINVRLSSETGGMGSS

SMILES	fold changes relative to vehicle control ([1]; captured protein AUP1, HeLa)	fold changes relative to vehicle control ([2]; HeLa, protein PPP6C)	fold changes relative to vehicle control ([3]; protein FANCI, HeLa)	fold changes relative to vehicle control ([4]; HeLa, protein SLC30A7)	fold changes relative to vehicle control ([5]; protein ISOC1, HeLa)	fold changes relative to vehicle control ([6]; protein PCBP2, HeLa)	fold changes relative to vehicle control [1]	fold changes relative to vehicle control [2]	fold changes relative to vehicle control [3]	fold changes relative to vehicle control [4]	fold changes relative to vehicle control [5]	fold changes relative to vehicle control [6]	fold changes relative to vehicle control ([1]; HeLa, protein AUP1)	fold changes relative to vehicle control ([3]; HeLa, protein FANCI)	fold changes relative to vehicle control [4, 7]	fold changes relative to vehicle control ([5]; HeLa, captured protein ISOC1)
Nc1nc2cccc(-c3ccccc3)c2n1Cc1ccc(Cl)c(Cl)c1 [compound 3]	0.9	1.04	1.19	1.07	1.03	0.91	–	–	–	–	–	–	–	–	–	–
Nc1nc2[nH]cc(CCc3ccc(C(=O)N[C@@H](CCC(=O)O)C(=O)O)cc3)c2c(=O)[nH]1 [PTX, pemetrexed]	–	–	–	–	–	–	0.89	0.94	1.04	0.97	0.99	1.03	–	–	–	–
Nc1nc2c(c(=O)[nH]1)N(C=O)C(CNc1ccc(C(=O)N[C@@H](CCC(=O)O)C(=O)O)cc1)CN2 (stereo partly drawn) [LEU, leucovorin]	–	0.99	–	–	–	0.85	–	–	–	–	–	–	0.83	0.87	1.06	1.09
CCCCCCOc1cccc(Cc2cnc(N)nc2N)c1 [compound 2]	1.25	0.99	1.02	1	1.01	1.28	–	–	–	–	–	–	–	–	–	–
NCCOCCOCC(=O)Nc1nc2ncc(CNc3ccc(C(=O)NC(CCC(=O)O)C(=O)O)cc3)nc2c(=O)[nH]1 (stereo not drawn) [compound 6]	–	1.05	–	–	–	1.04	–	–	–	–	–	–	0.92	1.11	0.94	1.11
CCCCCCOc1ccc(Cc2cnc(N)nc2N)cc1 [compound 1]	0.98	1.01	1	1.06	1.08	0.96	–	–	–	–	–	–	–	–	–	–
NCCCNc1ccc(C(=O)NC(CCC(=O)O)C(=O)O)cc1 (stereo not drawn) [compound 7]	–	1.04	–	–	–	0.96	–	–	–	–	–	–	0.9	1.09	1	1.04
